pIC50, pKd: −log10 of the molar value. ≈ marks a conversion by molar mass, not a printed value. Each block holds one compound with its values, some of them ahead of it.
What was measured:
[1] = molecular target: T1, Vascular endothelial growth factor receptor 2 (Homo sapiens, UniProt P35968); test: Inhibition of human VEGFR2 in presence of ATP by mobility shift assay
[2] = molecular target: Platelet-derived growth factor receptor beta (Homo sapiens, UniProt P09619); test: Inhibition of PDGFRbeta (unknown origin)
NFS-60 [3] = test: Growth inhibition of mouse NFS-60 cells; assay type: functional
[4] = Metabolic stability in mouse liver microsomes assessed as half life; assay type: ADME, Microsome
[5] = Unbound fraction in mouse plasma; assay type: ADME, cell-free
[6] = Solubility of compound in PBS at pH 7.4; assay type: physicochemical
[7] = molecular target: Receptor-type tyrosine-protein kinase FLT3 (Homo sapiens, UniProt P36888); test: Binding affinity to human FLT3 assessed as dissociation constant
[8] = molecular target: T2, Macrophage colony-stimulating factor 1 receptor (Homo sapiens, UniProt P07333); test: Binding affinity to CSF1R (unknown origin) assessed as dissociation constant
[9] = Oral bioavailability in CD-1 mouse at 3 mg/kg; assay type: ADME, organism-based; settings: in vivo
[10] = Half life in Sprague-Dawley rat at 10 mg/kg, po or 1 mg/kg, iv by LC-MS/MS analysis; assay type: ADME, organism-based; settings: in vivo
[11] = Oral bioavailability in Sprague-Dawley rat at 10 mg/kg by LC-MS/MS analysis; assay type: ADME, organism-based; settings: in vivo
[12] = Inhibition of FGFR (unknown origin); set-up: species or system Homo sapiens
EMT6 = test: Antitumor activity against mouse EMT6 cells allografted in BALB/c mouse assessed as reduction in tumor growth inhibition administered via oral gavage relative to control; assay type: functional
[13] = Inhibition of human CSF1R-autoinhibited by discoverX kinome scan assay
[14] = molecular target: T2, Macrophage colony-stimulating factor 1 receptor; test: Inhibition of CSF1R (unknown origin) preincubated for 60 mins measured after 1 hr by ADP-Glo assay
[15] = molecular target: T3, Macrophage colony-stimulating factor 1 receptor (Mus musculus, UniProt P09581); test: Inhibition of CSF1R in mouse BMDM cells; assay type: cell-based
T3 sequence (P09581 whole entry): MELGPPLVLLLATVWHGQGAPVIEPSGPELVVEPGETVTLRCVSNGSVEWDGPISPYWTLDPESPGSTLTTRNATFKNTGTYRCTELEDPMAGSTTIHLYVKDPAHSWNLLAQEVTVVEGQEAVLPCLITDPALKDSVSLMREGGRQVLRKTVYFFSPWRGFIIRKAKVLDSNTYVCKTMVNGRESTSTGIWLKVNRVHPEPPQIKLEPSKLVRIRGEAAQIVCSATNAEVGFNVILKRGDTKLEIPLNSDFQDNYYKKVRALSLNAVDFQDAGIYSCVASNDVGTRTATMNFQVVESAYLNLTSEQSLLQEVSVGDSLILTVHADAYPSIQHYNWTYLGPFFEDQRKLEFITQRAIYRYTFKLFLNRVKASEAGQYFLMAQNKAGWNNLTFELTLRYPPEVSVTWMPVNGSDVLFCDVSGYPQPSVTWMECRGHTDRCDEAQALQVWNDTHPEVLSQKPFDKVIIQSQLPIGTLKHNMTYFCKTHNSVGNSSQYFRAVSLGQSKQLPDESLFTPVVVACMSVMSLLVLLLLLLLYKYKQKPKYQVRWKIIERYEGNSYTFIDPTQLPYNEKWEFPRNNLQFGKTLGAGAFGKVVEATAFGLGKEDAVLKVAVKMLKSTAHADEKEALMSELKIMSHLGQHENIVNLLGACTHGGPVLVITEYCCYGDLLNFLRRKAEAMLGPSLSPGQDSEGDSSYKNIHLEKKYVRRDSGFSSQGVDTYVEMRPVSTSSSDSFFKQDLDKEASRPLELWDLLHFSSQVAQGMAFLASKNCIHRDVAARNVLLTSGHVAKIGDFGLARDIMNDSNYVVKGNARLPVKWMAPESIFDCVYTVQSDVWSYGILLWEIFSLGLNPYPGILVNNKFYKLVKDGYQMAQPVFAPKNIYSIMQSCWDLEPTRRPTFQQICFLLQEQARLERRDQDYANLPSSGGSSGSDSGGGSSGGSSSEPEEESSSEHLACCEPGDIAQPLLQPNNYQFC

ID8 = test: Cytotoxicity against mouse ID8 cells; assay type: functional
[16] = molecular target: Receptor-type tyrosine-protein kinase FLT3 (Homo sapiens, UniProt P36888, ITD); test: Inhibition of FLT3-ITD mutant phosphorylation in human HEK-293T cells incubated for 2 hrs; assay type: cell-based
[17] = molecular target: Mast/stem cell growth factor receptor Kit (Homo sapiens, UniProt P10721); test: Inhibition of c-KIT (unknown origin) using TK as substrate incubated for 50 mins in presence of ATP by HTRF method
NFS-60 [18] = test: Cytotoxicity against mouse NFS-60 cells assessed as cell growth inhibition incubated for 72 hrs by Cell titer-glo assay; settings: NFS-60, 72 h
[19] = Cytotoxicity against mouse RAW264.7 cells assessed as reduction in cell viability incubated for 48 hrs by MTT assay; assay type: toxicity, cell-based
NFS-60 [20] = test: Growth inhibition of mouse NFS-60 cells incubated for 72 hrs by Cell titer-glo assay; assay type: functional
[21] = molecular target: Tyrosine-protein kinase Lck (Homo sapiens, UniProt P06239); test: Inhibition of LCK (unknown origin)
[22] = molecular target: RAF proto-oncogene serine/threonine-protein kinase (Homo sapiens, UniProt P04049); test: Inhibition of c-RAF (unknown origin)
[23] = molecular target: T1, Vascular endothelial growth factor receptor 2; test: Inhibition of KDR (unknown origin) using peptide as substrate incubated for 90 mins in presence of ATP by HTRF method
[24] = molecular target: T3, Macrophage colony-stimulating factor 1 receptor; test: Inhibition of CSF1R autophosphorylation in mouse RAW264.7 cells measured after 4 hrs by Western blot analysis; assay type: cell-based
CT26 = test: Antiproliferative activity against mouse CT26 cells assessed as inhibition of cell growth measured after 6 days by MTT assay; assay type: functional, cell-based; settings: CT26, 144 h
HUVEC [25] = test: Antiproliferative activity against VEGF stimulated HUVEC cells assessed as reduction in cell viability incubated for 72 hrs by MTT assay; settings: Homo sapiens
HUVEC [26] = test: Antiproliferative activity against FGF stimulated HUVEC cells assessed as reduction in cell viability incubated for 72 hrs by MTT assay; settings: Homo sapiens
[27] = molecular target: T1, Vascular endothelial growth factor receptor 2; test: Inhibition of VEGFR2 (unknown origin)
[28] = molecular target: T3, Macrophage colony-stimulating factor 1 receptor; test: Inhibition of CSF1R in mouse RAW264.7 cells assessed as reduction in AKT phosphorylation measured after 4 hrs by Western blot analysis; assay type: cell-based
[29] = molecular target: Vascular endothelial growth factor receptor 1 (Homo sapiens, UniProt P17948); test: Inhibition of VEGFR1 (unknown origin)
[30] = molecular target: T4, Tyrosine-protein kinase Mer (Homo sapiens, UniProt Q12866); test: Inhibition of human MERTK by discoverX kinome scan assay
T4 sequence (Q12866 whole entry): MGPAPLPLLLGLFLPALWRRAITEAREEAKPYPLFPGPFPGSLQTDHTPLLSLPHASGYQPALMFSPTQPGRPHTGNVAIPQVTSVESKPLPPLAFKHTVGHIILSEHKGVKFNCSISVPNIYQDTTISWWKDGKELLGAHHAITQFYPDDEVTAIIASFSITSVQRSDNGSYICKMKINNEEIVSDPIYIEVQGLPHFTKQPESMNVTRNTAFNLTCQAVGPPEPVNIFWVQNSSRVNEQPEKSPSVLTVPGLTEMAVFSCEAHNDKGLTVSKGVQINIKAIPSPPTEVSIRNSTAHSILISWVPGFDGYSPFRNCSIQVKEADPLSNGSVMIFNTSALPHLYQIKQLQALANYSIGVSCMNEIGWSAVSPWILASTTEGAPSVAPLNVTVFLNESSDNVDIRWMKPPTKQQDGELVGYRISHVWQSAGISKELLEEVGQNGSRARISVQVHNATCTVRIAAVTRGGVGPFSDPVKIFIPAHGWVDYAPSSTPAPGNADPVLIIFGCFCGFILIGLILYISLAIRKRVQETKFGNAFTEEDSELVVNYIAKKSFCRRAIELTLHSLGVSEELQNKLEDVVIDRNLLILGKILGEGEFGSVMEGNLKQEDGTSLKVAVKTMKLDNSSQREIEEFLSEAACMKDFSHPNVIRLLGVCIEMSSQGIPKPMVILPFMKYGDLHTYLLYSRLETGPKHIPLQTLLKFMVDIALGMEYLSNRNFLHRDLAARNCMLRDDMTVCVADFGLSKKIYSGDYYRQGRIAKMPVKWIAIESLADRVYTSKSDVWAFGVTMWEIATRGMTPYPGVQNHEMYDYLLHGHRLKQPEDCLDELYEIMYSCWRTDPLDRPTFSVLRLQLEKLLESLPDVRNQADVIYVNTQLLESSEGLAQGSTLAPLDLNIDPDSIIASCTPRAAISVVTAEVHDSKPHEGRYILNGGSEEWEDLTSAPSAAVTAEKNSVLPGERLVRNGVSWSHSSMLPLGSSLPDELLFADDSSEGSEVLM

MC-38 = test: Antitumor activity against mouse MC38 cells allografted in C57BL/6 mouse assessed as reduction in tumor volume at 5 to 10 mg/kg administered via oral gavage for 21 days relative to control; assay type: functional; set-up: scale not given: the % may be the effect or the level left; settings: dose 5-10 mg/kg, time 21 day

T2 sequence (P07333 whole entry): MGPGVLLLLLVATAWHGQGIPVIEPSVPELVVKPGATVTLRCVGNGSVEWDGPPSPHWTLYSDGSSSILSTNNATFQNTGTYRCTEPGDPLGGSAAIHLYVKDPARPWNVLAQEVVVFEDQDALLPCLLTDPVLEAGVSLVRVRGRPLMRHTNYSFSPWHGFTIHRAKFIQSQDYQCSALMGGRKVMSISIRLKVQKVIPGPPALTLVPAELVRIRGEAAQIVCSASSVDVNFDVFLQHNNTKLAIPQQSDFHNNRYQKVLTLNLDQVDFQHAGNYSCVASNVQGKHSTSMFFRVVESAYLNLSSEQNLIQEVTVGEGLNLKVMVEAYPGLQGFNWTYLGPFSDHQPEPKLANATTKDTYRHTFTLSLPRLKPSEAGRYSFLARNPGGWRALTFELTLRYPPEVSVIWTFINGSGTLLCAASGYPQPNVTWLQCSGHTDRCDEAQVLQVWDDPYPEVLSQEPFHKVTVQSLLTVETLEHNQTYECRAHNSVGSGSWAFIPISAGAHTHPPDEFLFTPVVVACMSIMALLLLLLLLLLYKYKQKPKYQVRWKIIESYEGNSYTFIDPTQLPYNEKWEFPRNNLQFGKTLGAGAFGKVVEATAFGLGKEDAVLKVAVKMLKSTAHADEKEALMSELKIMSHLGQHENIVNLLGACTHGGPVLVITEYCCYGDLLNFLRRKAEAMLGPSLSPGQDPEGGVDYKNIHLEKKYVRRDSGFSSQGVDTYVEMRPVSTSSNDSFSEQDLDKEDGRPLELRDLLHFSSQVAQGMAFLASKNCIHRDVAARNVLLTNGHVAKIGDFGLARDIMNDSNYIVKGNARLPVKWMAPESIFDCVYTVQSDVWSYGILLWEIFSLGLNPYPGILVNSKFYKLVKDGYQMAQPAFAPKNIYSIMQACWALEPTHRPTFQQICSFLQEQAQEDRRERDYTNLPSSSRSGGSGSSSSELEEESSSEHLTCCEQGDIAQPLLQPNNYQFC
T1 sequence (P35968 whole entry): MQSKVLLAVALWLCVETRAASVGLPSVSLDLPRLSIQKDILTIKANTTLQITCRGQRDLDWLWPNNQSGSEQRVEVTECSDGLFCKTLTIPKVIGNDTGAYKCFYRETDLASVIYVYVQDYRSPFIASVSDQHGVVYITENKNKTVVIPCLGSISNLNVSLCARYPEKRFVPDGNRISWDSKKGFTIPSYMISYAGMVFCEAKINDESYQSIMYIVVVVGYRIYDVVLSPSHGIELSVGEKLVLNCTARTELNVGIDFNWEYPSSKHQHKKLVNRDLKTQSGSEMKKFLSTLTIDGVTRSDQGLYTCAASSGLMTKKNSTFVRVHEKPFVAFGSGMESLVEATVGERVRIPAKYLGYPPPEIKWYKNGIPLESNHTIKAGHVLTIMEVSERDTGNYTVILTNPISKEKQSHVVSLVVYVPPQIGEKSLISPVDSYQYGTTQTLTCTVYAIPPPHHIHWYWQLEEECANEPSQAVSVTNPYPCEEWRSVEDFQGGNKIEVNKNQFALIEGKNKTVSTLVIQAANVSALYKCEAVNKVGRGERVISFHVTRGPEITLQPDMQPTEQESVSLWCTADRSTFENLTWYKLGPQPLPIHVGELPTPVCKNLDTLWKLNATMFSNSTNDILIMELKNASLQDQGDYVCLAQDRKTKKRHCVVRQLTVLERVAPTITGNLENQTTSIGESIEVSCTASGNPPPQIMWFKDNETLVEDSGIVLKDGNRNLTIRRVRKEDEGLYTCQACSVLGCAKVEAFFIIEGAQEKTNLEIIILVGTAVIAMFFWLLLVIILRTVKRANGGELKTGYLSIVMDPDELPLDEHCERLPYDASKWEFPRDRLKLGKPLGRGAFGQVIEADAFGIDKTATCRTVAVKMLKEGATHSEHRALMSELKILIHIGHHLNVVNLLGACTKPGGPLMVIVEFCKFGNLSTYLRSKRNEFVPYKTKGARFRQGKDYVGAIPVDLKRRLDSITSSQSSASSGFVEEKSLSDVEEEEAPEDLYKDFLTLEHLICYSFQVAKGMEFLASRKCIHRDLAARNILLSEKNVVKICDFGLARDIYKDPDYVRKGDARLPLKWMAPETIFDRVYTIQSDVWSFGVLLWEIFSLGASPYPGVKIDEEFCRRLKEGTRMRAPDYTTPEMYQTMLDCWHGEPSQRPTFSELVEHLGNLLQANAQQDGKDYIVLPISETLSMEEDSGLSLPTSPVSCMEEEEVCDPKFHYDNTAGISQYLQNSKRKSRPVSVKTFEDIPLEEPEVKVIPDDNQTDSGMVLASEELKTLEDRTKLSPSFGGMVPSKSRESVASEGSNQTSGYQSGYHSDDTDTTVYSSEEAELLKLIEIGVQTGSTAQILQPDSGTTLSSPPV
Chain of Vascular endothelial growth factor receptor 1 (P17948 whole entry): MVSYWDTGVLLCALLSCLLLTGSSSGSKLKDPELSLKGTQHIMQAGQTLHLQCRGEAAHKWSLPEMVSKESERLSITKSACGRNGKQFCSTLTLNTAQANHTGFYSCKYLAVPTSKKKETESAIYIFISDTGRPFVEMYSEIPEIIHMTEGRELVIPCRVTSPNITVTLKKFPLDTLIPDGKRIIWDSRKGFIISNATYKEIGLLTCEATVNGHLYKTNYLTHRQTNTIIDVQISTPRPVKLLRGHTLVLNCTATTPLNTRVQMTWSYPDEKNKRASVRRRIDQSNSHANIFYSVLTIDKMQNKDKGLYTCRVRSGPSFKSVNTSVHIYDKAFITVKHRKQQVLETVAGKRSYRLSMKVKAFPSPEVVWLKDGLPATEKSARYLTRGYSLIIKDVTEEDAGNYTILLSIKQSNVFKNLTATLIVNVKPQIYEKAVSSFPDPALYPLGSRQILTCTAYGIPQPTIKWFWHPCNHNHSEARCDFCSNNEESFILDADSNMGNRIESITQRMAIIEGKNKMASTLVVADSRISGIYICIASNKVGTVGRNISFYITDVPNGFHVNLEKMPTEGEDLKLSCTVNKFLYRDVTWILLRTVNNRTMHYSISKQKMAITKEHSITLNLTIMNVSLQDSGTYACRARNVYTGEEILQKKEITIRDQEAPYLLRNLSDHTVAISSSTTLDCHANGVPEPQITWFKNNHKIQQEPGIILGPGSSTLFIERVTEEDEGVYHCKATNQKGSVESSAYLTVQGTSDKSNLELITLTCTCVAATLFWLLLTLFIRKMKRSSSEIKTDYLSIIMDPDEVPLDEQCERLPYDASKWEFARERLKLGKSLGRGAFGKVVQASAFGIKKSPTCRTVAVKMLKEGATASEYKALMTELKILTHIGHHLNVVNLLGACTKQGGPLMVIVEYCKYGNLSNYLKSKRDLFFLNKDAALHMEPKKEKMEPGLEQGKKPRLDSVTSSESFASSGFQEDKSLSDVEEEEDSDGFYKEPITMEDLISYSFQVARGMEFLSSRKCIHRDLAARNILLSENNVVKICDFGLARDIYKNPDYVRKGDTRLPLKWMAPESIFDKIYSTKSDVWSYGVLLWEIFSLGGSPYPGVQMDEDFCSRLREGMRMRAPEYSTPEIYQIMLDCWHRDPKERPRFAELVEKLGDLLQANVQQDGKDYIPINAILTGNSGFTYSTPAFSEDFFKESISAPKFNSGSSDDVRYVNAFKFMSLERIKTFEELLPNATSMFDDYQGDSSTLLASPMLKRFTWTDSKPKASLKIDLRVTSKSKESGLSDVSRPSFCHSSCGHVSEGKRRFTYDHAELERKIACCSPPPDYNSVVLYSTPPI
Chain of Platelet-derived growth factor receptor beta (P09619 whole entry): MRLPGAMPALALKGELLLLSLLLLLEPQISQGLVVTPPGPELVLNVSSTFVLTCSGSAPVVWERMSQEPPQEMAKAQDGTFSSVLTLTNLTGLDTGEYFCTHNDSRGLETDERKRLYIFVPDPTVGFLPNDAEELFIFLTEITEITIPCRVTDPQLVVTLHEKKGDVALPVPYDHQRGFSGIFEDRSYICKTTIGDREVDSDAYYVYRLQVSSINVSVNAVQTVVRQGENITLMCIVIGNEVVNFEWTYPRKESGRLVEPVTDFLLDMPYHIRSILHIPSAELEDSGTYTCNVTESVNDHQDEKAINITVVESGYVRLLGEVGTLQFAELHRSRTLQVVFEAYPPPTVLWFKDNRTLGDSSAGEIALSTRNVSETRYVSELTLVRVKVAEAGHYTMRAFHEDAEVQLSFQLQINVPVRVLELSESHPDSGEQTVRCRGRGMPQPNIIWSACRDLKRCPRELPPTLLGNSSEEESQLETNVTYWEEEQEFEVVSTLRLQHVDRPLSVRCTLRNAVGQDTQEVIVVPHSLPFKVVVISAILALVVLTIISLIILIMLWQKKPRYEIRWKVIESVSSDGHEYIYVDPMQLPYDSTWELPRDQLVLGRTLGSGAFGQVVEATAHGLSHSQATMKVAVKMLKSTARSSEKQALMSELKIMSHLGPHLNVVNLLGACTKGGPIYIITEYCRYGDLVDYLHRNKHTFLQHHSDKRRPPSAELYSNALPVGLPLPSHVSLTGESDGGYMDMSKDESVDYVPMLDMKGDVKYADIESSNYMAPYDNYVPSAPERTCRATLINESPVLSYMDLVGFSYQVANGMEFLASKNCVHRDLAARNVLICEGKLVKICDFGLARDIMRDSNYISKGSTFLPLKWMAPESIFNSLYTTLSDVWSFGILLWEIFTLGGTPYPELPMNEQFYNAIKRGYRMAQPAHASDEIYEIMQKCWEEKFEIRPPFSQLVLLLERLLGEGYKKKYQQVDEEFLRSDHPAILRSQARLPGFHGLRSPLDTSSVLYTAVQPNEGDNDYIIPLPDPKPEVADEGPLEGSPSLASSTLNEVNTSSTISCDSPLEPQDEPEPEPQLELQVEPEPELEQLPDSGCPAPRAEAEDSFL

pIC50 [1]: > 8.00
pIC50 [2]: > 8.00
SMILES: CNC(=O)c1cccc2cc(Oc3ccnc(NC(=O)c4ccc(N5C[C@@H](C)N[C@@H](C)C5)cc4)c3)ccc12

fraction unbound [5]: 0.06
solubility [6]: 428 µM (≈ 257 µg/mL)
SMILES: COc1ccc(N2C(=O)N(c3c(C)cccc3Cl)Cc3cnc(Nc4ccc(C5CCN(C)CC5)cc4OC)nc32)nc1

pKd [7]: > 9.00
pKd [8]: > 9.00
SMILES: CN1CCN(c2ccc(C(=O)Nc3n[nH]c4cc(OCCOCc5ccc(C(F)(F)F)cc5)ccc34)cc2)CC1

bioavailability [9]: 100%
SMILES: Cn1cc(-c2cc(Oc3ccc(NC(=O)N4CCC5(CCC5)C4=O)nc3)ccn2)cn1

half-life [10]: 152 min
bioavailability [11]: 106%
SMILES: CNc1ccc(-c2cnc(Nc3cnc(C4CC4)nc3)cc2C)c2c1C(=O)NC2

pKd [8]: > 7.00
SMILES: CCn1cc(OCC(F)(F)F)c(C(=O)Nc2ccc(Oc3ccnc4cc(OC)c(OC)cc34)cn2)n1
TGI (EMT6): >50%

pIC50 [13]: 7.63
pIC50 [14]: 7.63
SMILES: Cn1cc(-c2cc(Cc3ccc(NC(=O)NC(=O)C(C)(C)C)nc3)ccn2)cn1

pIC50 [15]: 7.03
SMILES: Cc1cc(NC(=O)c2cccc3cc(-c4cccc5[nH]nc(N)c45)ccc23)ccc1F

pIC50 [16]: 6.72
pIC50 [17]: 7.70
SMILES: CC1(C)CC=C(c2nc(C3CC(C)(C)OC(C)(C)C3)ccc2NC(=O)c2nc(C#N)c[nH]2)CC1 [EDICOTINIB]

pIC50 [24]: 7.59
SMILES: COc1ncc(F)cc1CNc1ccc(Cc2c[nH]c3ncc(C)cc23)c(F)n1 [PLX-5622]

pIC50 (CT26): 9.00
SMILES: CNC(=O)c1cc(Oc2ccc3nc(N[C@@H]4CCCC[C@H]4O)sc3c2)ccn1 [SOTULETINIB]

pIC50 [15]: 8.39
SMILES: CCN(CC)CCNC(=O)c1c(C)[nH]c(/C=C2\C(=O)Nc3ccc(F)cc32)c1C [SUNITINIB]

pIC50 [27]: 9.00
pIC50 [28]: 7.10
pIC50 [29]: 9.00
pIC50 [30]: 8.40
SMILES: Cc1cc2cc(Oc3ccnc(Nc4cccc(CS(=O)(=O)NCCN(C)C)c4)n3)ccc2[nH]1 [SURUFATINIB]
pIC50 (HUVEC [25]): > 7.30
pIC50 (HUVEC [26]): > 7.30

More lines, now with the values behind:

SMILES: Cc1cccc(Cn2nc(C)c3c(NC(=O)c4csc5c(N)ncnc45)cccc32)n1
GI50 (NFS-60 [3]): 80 nM

SMILES: COc1ccc(N(C(=O)Nc2c(C)cccc2C)c2cc(Nc3ccc(N4CCN(C)CC4)cc3)ncn2)c(OC)c1
half-life [4]: > 120 min

SMILES: COc1cc(OC)c(Cl)c(-c2ccc3c(NC(=O)c4ccc(N5CCNC(C)(C)C5)cc4)n[nH]c3n2)c1Cl
pIC50 [12]: 7.76

SMILES: Cn1cc(-c2cc(Oc3ccc(NC(=O)N4CCC5(CCC(F)(F)CC5)C4=O)nc3)ccn2)cn1
bioavailability [9]: 100%

SMILES: Cc1cccc(Cn2nc(C3CC3)c3c(NC(=O)c4cnc5cc(OCCN6CCN(C)CC6)ccn45)cccc32)n1 [ARRY-382]
ED50 (ID8): 3 mg/kg

SMILES: Cc1ccc(F)c(NC(=O)Nc2ccc(-c3cccc4[nH]nc(N)c34)cc2)c1 [LINIFANIB]
pIC50 (NFS-60 [18]): 7.52
IC50 at 48 h [19]: 8.6 µM
GI50 (NFS-60 [20]): 4.4 µM

SMILES: O=C(Nc1ccc(OC(F)(F)F)cc1)c1sccc1NCc1ccnc2ccccc12 [OSI-930]
pIC50 [21]: 7.82
pIC50 [22]: 7.82
pIC50 [23]: 7.82

SMILES: Cc1nc(-c2cnc(NC(C)C)n(C)c2=O)ccc1Oc1ccnc(-c2cnn(C)c2)c1 [VIMSELTINIB]
Activity (MC-38): 67%

Reference: ChEMBL document CHEMBL5620341, “CSF1R inhibitors are emerging immunotherapeutic drugs for cancer treatment” (Eur J Med Chem, 2023)
